In patent US5284850A, “Terpene amino alcohols and medicinal uses thereof” (Kuraray Co., Ltd., priority 1985, dated 1994):

Test system: sensitized bronchial muscle
Experiment: Antiallergic action: inhibition of egg albumin-induced contraction of sensitized guinea pig bronchial muscle
Type: tissue-based, guinea pigs of Hartley strain
Conditions: Cavia porcellus; for inhibition at 0.1 µM: 10^-7 M; for inhibition at 10 µM: 10^-5 M; for inhibition at 1 µM: 10^-6 M; for inhibition at 0.01 µM: 10^-8 M; for inhibition at 100 µM: 10^-4 M
Description: Male guinea pigs of Hartley strain (body weight: about 250 g) were intraperitoneally or intramuscularly dosed with egg albumin (dose 100 mg/kg) and the same procedure was repeated after 3 days. After 3 to 4 weeks, the guinea pi-as were bled to death and the sensitized bronchial muscle was excised and cut into 1.5 mm thick rings. Three rings were joined to prepare a specimen. The specimen was suspended in a tissue bath and a load of 1 g was applied. […] After stabilization of the specimen (after about 1 hour), histamine hydrochloride was added to the bath at a final concentration of 10^-5 M. The contraction curve was recorded. After the contraction had been stabilized, the specimen was washed with 3 portions of Ringer's solution at 10-minute intervals to stabilize the contraction (about 1 hour was required). Then, the test compound was added to the tissue bath and, after an interval of 10 minutes, 5 mg/ml of egg albumin was added. The contraction amplitude of the specimen was measured and the percent inhibition was calculated according to the following formula. [formula] A: Contraction amplitude of control group when egg albumin is added A': Contraction amplitude of dosage group when egg albumin is added
H: Contraction amplitude of control group when histamine hydrochloride is added
H': Contraction amplitude of dosage group when histamine hydrochloride is added

## CN(CCC(C)(O)CCCC(C)(O)CCCC(C)(C)O)Cc1ccccc1 (stereo not shown) [Compound (37), 1-(methylbenzylamino)-3,7,11-trimethyl-3,7,11-dodecanetriol]
  inhibition at 0.1 µM: 16%

## CC(C)CCCC(C)CCCC(C)(O)C(O)CNc1ccc(O)cc1 (stereo not shown) [Compound (19)]
  inhibition at 10 µM: 43%
  inhibition at 1 µM: 54%
  inhibition at 0.1 µM: 33%

## CC(C)CCCC(C)CCCC(C)(O)C(O)Cn1ccnc1 (stereo not shown) [Compound (21), 1-(1H-imidazol-1-yl)-3,7,11-trimethyl-2,3-dodecanediol]
  inhibition at 0.1 µM: 66.9%

## CC(C)=CCCC(C)(O)C(CO)N1CCCC1 (stereo not shown) [Compound (54)]
  inhibition at 10 µM: 54%
  inhibition at 1 µM: 63%
  inhibition at 0.1 µM: 33%
  inhibition at 0.01 µM: 20%

## CC(C)CCCC(C)CCCC(C)(O)C(C)N (stereo not shown) [Compound (61)]
  inhibition at 10 µM: 70%
  inhibition at 1 µM: 48%
  inhibition at 0.1 µM: 24%

## CC(C)CCCC(C)CCCC(C)(O)C(O)CN1CCN(C(c2ccccc2)c2ccccc2)CC1 (stereo not shown) [Compound (24)]
  inhibition at 1 µM: 75%
  inhibition at 0.1 µM: 60%
  inhibition at 0.01 µM: 25%

## CCCCN(CCCC)CC(O)C(C)(O)CCCC(C)CCCC(C)C (stereo not shown) [Compound (13), 1-dibutylamino-3,7,11-trimethyl-2,3-dodecanediol]
  inhibition at 100 µM: 40.2%

## CC(C)CCCC(C)CCCC(C)(O)C(O)CNCCO (stereo not shown) [Compound (14)]
  inhibition at 10 µM: 48.7%
  inhibition at 1 µM: 51.4%

## CNC(C)C(C)(O)CCCC(C)(O)CCCC(C)C (stereo not shown) [Compound (70), 2-(methylamino)-3,7,11-trimethyl-3,7-dodecanediol]
  inhibition at 1 µM: 42%
  inhibition at 0.1 µM: 19%

## CCCNC(CO)C(C)(O)CCC=C(C)C (stereo not shown) [Compound (52)]
  inhibition at 10 µM: 62%
  inhibition at 1 µM: 31%
  inhibition at 0.1 µM: 7%
  inhibition at 0.01 µM: 0%

## CC(C)CCCC(C)CCCC(C)(O)C(CO)N(C)C(=O)c1cccnc1 (stereo not shown) [Compound (66), N-methyl-N-(1,3-dihydroxy-3,7,11-trimethyldodecan-2-yl)nicotinamide]
  inhibition at 10 µM: 77%
  inhibition at 1 µM: 72%
  inhibition at 0.1 µM: 81%

## CC(C)CCCC(C)CCCC(C)(O)C(O)CN1CCCCC1 (stereo not shown) [Compound (39)]
  inhibition at 0.1 µM: 29.1%

## CC(C)CCCC(C)CCCC(C)(O)C(O)CN(C)C (stereo not shown) [Compound (16), 1-(dimethylamino)-3,7,11-trimethyl-2,3-dodecanediol]
  inhibition at 10 µM: 48%
  inhibition at 1 µM: 35%
  inhibition at 0.1 µM: 15%

## CC(C)CCCC(C)CCCC(C)(O)C(O)CN1CCSCC1 (stereo not shown) [Compound (26)]
  inhibition at 10 µM: 50%
  inhibition at 1 µM: 39%
  inhibition at 0.1 µM: 18%

## COc1ccc(CN2CCN(C(CO)C(C)(O)CCCC(C)CCCC(C)C)CC2)c(OC)c1OC (stereo not shown) [Compound (65)]
  inhibition at 10 µM: 73%
  inhibition at 1 µM: 54%
  inhibition at 0.1 µM: 37%

## CC(C)CCCC(C)CCCC(C)(O)C(O)CNc1cccc2ncccc12 (stereo not shown) [Compound (23)]
  inhibition at 1 µM: 76%
  inhibition at 0.1 µM: 55%
  inhibition at 0.01 µM: 27%

## CC(C)CCCC(C)CCCC(C)CCCC(C)(O)C(CO)N(C)CCOC(=O)c1cccnc1 (stereo not shown) [Compound (74)]
  inhibition at 10 µM: 43%
  inhibition at 1 µM: 16%
  inhibition at 0.1 µM: 20%

## CC(C)CCCC(C)CCCC(C)(O)C(O)Cn1c(=O)[nH]c2ccccc21 (stereo not shown) [Compound (25)]
  inhibition at 1 µM: 69%
  inhibition at 0.1 µM: 47%
  inhibition at 0.01 µM: 19%

## CNCC(O)C(C)(O)CCCC(C)C (stereo not shown) [Compound (8)]
  inhibition at 100 µM: 52.6%
  inhibition at 10 µM: 37.8%

## CC(C)CCCC(C)CCCC(C)(O)C(O)CN1CCOCC1 (stereo not drawn) [Compound (17), 3,7,11-trimethyl-l-morpholino-2,3-dodecanediol]
  inhibition at 10 µM: 45%
  inhibition at 1 µM: 68%
  inhibition at 0.1 µM: 29%

## CC(C)=CCCC(C)(O)C(CO)N(C)C (stereo not shown) [Compound (51)]
  inhibition at 10 µM: 41%
  inhibition at 1 µM: 18%
  inhibition at 0.1 µM: 0%

## CC(C)CCCC(C)(O)CCCC(C)(O)CCN(C)Cc1ccccc1 (stereo not shown) [Compound (29), 1-(methylbenzylamino)-3,7,11-trimethyl-3,7-dodecanediol]
  inhibition at 0.1 µM: 42.3%

## CCCCN(CCCC)CC(O)C(C)(O)CCC=C(C)C (stereo not shown) [(1)]
  inhibition at 100 µM: 43.6%

## CC(C)CCCC(C)(O)C(CO)N(C)CCO (stereo not shown) [Compound (60), 2-[(2-hydroxyethyl)methylamino]-3,7-dimethyl-1,3-octanediol]
  inhibition at 10 µM: 35%
  inhibition at 1 µM: 11%
  inhibition at 0.1 µM: 0%

## COc1ccc(CN2CCN(CC(O)C(C)(O)CCCC(C)CCCC(C)C)CC2)c(OC)c1OC (stereo not drawn) [Compound (18), 3,7,11-trimethyl-l-[4-[(2,3,4-trimethoxyphenyl)methyl]piperazin-1-yl]-2,3-dodecanediol]
  inhibition at 10 µM: 62%
  inhibition at 1 µM: 79%
  inhibition at 0.1 µM: 45%

## CCCCN(CCCC)C(CO)C(C)(O)CCCC(C)C (stereo not shown) [Compound (59), 2-(dibutylamino)-3,7-dimethyl-1,3-octanediol]
  inhibition at 10 µM: 49%
  inhibition at 1 µM: 51%
  inhibition at 0.1 µM: 0%

## CC(C)CCCC(C)CCCC(C)CCCC(C)(O)C(CO)N(C)CCO (stereo not shown) [Compound (73)]
  inhibition at 10 µM: 36%
  inhibition at 1 µM: 58%
  inhibition at 0.1 µM: 47%
  inhibition at 0.01 µM: 21%

## CC(C)=CCCC(C)(O)C(O)CN1CCCCC1 (stereo not shown) [Compound (4)]
  inhibition at 10 µM: 42%
  inhibition at 1 µM: 2.6%

## CC(C)CCCC(C)CCCC(C)(O)C(CO)N1CCSCC1 (stereo not shown) [Compound (68)]
  inhibition at 10 µM: 38%
  inhibition at 1 µM: 36%
  inhibition at 0.1 µM: 22%

## CCN(CC)CC(O)C(C)(O)CCC=C(C)C (stereo not shown) [Compound (48)]
  inhibition at 10 µM: 47%
  inhibition at 1 µM: 39%

## CNCC(O)C(C)(O)CCCC(C)CCCC(C)CCCC(C)C (stereo not shown) [(31)]
  inhibition at 10 µM: 10.9%

## CC(C)CCCC(C)(O)C(O)CN (stereo not shown) [Compound (7)]
  inhibition at 10 µM: 54.3%
  inhibition at 1 µM: 48.1%
  inhibition at 0.1 µM: 58.7%

## CC(C)CCCC(C)CCCC(C)(O)C(CO)NC1CCN(Cc2ccccc2)CC1 (stereo not shown) [Compound (63)]
  inhibition at 1 µM: 55%
  inhibition at 0.1 µM: 45%
  inhibition at 0.01 µM: 11%

## CC(C)=CCCC(C)(O)C(CO)N1CCCCC1 (stereo not shown) [Compound (55)]
  inhibition at 10 µM: 45%
  inhibition at 1 µM: 17%
  inhibition at 0.1 µM: 9%
  inhibition at 0.01 µM: 0%

## CCCCNCC(O)C(C)(O)CCC=C(C)C (stereo not shown) [Compound (49)]
  inhibition at 1 µM: 61%
  inhibition at 0.1 µM: 20.7%

## CNC(CO)C(C)(O)CCCC(C)CCCC(C)C (stereo not shown) [Compound (62)]
  inhibition at 10 µM: 39%
  inhibition at 1 µM: 35%
  inhibition at 0.1 µM: 12%

## CC(C)CCCC(C)CCCC(C)(O)C(O)CN1CCCC1 (stereo not shown) [Compound (38)]
  inhibition at 0.1 µM: 36.7%

## CC(C)CCCC(C)CCCC(C)(O)C(CO)NCCCN1CCOCC1 (stereo not shown) [Compound (69)]
  inhibition at 1 µM: 65%
  inhibition at 0.1 µM: 52%

## CC(C)CCCC(C)CCCC(C)(O)C(CO)n1ccnc1 (stereo not shown) [Compound (64)]
  inhibition at 0.1 µM: 63%

## CNCC(O)C(C)CCCC(C)CCCC(C)C (stereo not shown) [Compound (28), 1-methylamino-3,7,11-trimethyl-2-dodecanol]
  inhibition at 10 µM: 66%
  inhibition at 1 µM: 49%
  inhibition at 0.1 µM: 35%

## CCN(CC)CC(O)C(C)(O)CCCC(C)CCCC(C)CCCC(C)C (stereo not shown) [(33)]
  inhibition at 10 µM: 47.9%
  inhibition at 1 µM: 32.6%

## CC(C)=CCCC(C)(O)C(O)CN(C)c1ccccc1 (stereo not shown) [(2)]
  inhibition at 100 µM: 58.7%
  inhibition at 10 µM: 30.1%
  inhibition at 1 µM: 19.9%

## CNCC(O)C(C)(O)CCCC(C)CCCC(C)C (stereo not shown) [Compound (12), 1-methylamino-3,7,11-trimethyl-2,3-dodecanediol]
  inhibition at 100 µM: 48.3%
  inhibition at 10 µM: 35.4%

## CC(C)CCCC(C)CCCC(C)CCCC(C)(O)C(CO)N(C)C (stereo not shown) [Compound (72)]
  inhibition at 10 µM: 51%
  inhibition at 1 µM: 60%
  inhibition at 0.1 µM: 24%
  inhibition at 0.01 µM: 9%

## CC(C)CCCC(C)(O)C(N)CO (stereo not shown) [Compound (58)]
  inhibition at 100 µM: 21%
  inhibition at 10 µM: 0%
  inhibition at 1 µM: 0%

## CNCC(O)C(C)(O)CCC=C(C)C (stereo not shown) [Compound (44)]
  inhibition at 10 µM: 63%
  inhibition at 1 µM: 54%

## CC(C)=CCCC(C)(O)C(CO)N1CCOCC1 (stereo not shown) [Compound (56)]
  inhibition at 10 µM: 27%
  inhibition at 1 µM: 44%
  inhibition at 0.1 µM: 16%
  inhibition at 0.01 µM: 0%

## CC(C)=CCCC(C)(O)C(O)CN (stereo not shown) [Compound (43)]
  inhibition at 1 µM: 65%

## CCCCN(CCCC)C(CO)C(C)(O)CCC=C(C)C (stereo not shown) [Compound (53)]
  inhibition at 10 µM: 33%
  inhibition at 1 µM: 59%
  inhibition at 0.1 µM: 49%
  inhibition at 0.01 µM: 8%

## CC(C)CCCC(C)(O)CCCC(C)(O)C(C)N(C)Cc1ccccc1 (stereo not shown) [Compound (71), 2-(benzylmethylamino)-3,7,11-trimethyl-3,7-dodecanediol]
  inhibition at 1 µM: 37%
  inhibition at 0.1 µM: 46%

## CC(C)CCCC(C)CCCC(C)CCCC(C)(O)C(O)CN (stereo not shown) [Compound (30)]
  inhibition at 10 µM: 16.7%
  inhibition at 1 µM: 9%

## CC(C)CCCC(C)CCCC(C)(O)C(O)CNC1CCN(Cc2ccccc2)CC1 (stereo not shown) [Compound (40), 1-[(1-benzylpiperidin-4-yl)amino]-3,7-11-trimethyl-2,3-dodecanediol]
  inhibition at 0.1 µM: 34.8%

## CC(C)CCCC(C)CCCC(C)(O)C(O)CNCc1cccnc1 (stereo not shown) [Compound (41)]
  inhibition at 0.1 µM: 46%
